In patent US8846698B2, “Pyrrolo[2,3-d]pyrimidine tropomysin-related kinase inhibitors” (Pfizer Limited, priority 2011, dated 2014):
pIC50: −log10 of the molar value.

Each compound was assayed against TRKA (Homo sapiens (Human), UniProt P04629) (assay: Isolated TRK enzyme assay (HTRF KinEASE-TK), TRKA). Conditions: read-out: Trka enzyme (IC50).
Assay type: biochemical

TRKA, sequence (P04629 441-796): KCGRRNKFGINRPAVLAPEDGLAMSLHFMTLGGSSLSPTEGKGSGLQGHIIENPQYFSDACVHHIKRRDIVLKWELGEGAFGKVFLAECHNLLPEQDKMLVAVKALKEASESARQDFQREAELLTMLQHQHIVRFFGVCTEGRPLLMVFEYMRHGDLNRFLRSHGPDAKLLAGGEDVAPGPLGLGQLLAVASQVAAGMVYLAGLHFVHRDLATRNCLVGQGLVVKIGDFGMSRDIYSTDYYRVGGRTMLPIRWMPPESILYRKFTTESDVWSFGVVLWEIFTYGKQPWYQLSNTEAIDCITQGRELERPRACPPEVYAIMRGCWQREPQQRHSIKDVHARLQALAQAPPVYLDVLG

`Cn1cc(C(=O)c2cncc(NC(=O)CCc3ccccc3Cl)c2)c2cncnc21` [Example 198, 3-(2-chlorophenyl)-N-{5-[(7-methyl-7H-pyrrolo[2,3-d]pyrimidin-5-yl)carbonyl]pyridin-3-yl}propanamide] was tested. Which pIC50 did it give?
The pIC50 was 5.63.

How did the pIC50 turn out when `CC(C)(C)n1cc(C(=O)c2cncc(NC(=O)Cc3coc(C4CC4)n3)c2)c2cncnc21` [Example 199, N-{5-[(7-tert-butyl-7H-pyrrolo[2,3-d]pyrimidin-5-yl)carbonyl]pyridin-3-yl}-2-(2-cyclopropyl-1,3-oxazol-4-yl)acetamide] was run?
Its pIC50 is 7.66.

How did the pIC50 turn out when `CC(C)(C)n1cc(C(=O)c2cncc(NC(=O)Cc3cccc(S(C)(=O)=O)c3)c2)c2cncnc21` [Example 200, N-{5-[(7-tert-butyl-7H-pyrrolo[2,3-d]pyrimidin-5-yl)carbonyl]pyridin-3-yl}-2-[3-(methylsulfonyl)phenyl]acetamide] was run?
Its pIC50 is 8.00.

How did the pIC50 turn out when `Cc1nn(C)cc1CC(=O)Nc1cncc(C(=O)c2cn(C(C)(C)C)c3ncncc23)c1` [Example 201, N-{5-[(7-tert-butyl-7H-pyrrolo[2,3-d]pyrimidin-5-yl)carbonyl]pyridin-3-yl}-2-(1,3-dimethyl-1H-pyrazol-4-yl)acetamide] was run?
Its pIC50 is 6.32.

With `Cn1cc(CC(=O)Nc2cncc(C(=O)c3cn(C(C)(C)C)c4ncncc34)c2)cn1` [Example 202, N-{5-[(7-tert-butyl-7H-pyrrolo[2,3-d]pyrimidin-5-yl)carbonyl]pyridin-3-yl}-2-(1-methyl-1H-pyrazol-4-yl)acetamide] as the compound, how does the pIC50 read?
The pIC50 was 6.39.

`Cn1cc(CC(=O)Nc2cncc(C(=O)c3cn(C(C)(C)C)c4ncncc34)c2)c(C2CC2)n1` [Example 203, N-{5-[(7-tert-butyl-7H-pyrrolo[2,3-d]pyrimidin-5-yl)carbonyl]pyridin-3-yl}-2-(3-cyclopropyl-1-methyl-1H-pyrazol-4-yl)acetamide] was tested. Which pIC50 did it give?
Its pIC50 is 6.50.

How did the pIC50 turn out when `C[C@@H](CO)n1cc(C(=O)c2cncc(NC(=O)Cc3cccc(C(F)(F)F)c3)c2)c2cncnc21` [Example 204, N-[5-({7-[(1S)-2-hydroxy-1-methylethyl]-7H-pyrrolo[2,3-d]pyrimidin-5-yl}carbonyl)pyridin-3-yl]-2-[3-(trifluoromethyl)phenyl]acetamide] was run?
The pIC50 was 8.37.

`C[C@H](CO)n1cc(C(=O)c2cncc(NC(=O)Cc3cccc(C(F)(F)F)c3)c2)c2cncnc21` [Example 205, N-[5-({7-[(1R)-2-hydroxy-1-methylethyl]-7H-pyrrolo[2,3-d]pyrimidin-5-yl}carbonyl)pyridin-3-yl]-2-[3-(trifluoromethyl)phenyl]acetamide] was tested. Which pIC50 did it give?
Its pIC50 is 7.91.

With `CC(C)c1cn(CC(=O)Nc2cncc(C(=O)c3cn([C@H](C)CO)c4ncncc34)c2)nn1` [Example 206, N-[5-({7-[(1R)-2-hydroxy-1-methylethyl]-7H-pyrrolo[2,3-d]pyrimidin-5-yl}carbonyl)pyridin-3-yl]-2-(4-isopropyl-1H-1,2,3-triazol-1-yl)acetamide] as the compound, how does the pIC50 read?
The pIC50 was 6.91.

`CC(C)n1ncc(CC(=O)Nc2cncc(C(=O)c3cn([C@H](C)CO)c4ncncc34)c2)c1C(F)(F)F` [Example 207, N-[5-({7-[(1R)-2-hydroxy-1-methylethyl]-7H-pyrrolo[2,3-d]pyrimidin-5-yl}carbonyl)pyridin-3-yl]-2-[1-isopropyl-5-(trifluoromethyl)-1H-pyrazol-4-yl]acetamide] was tested. Which pIC50 did it give?
Its pIC50 is 6.96.

`C[C@H](CO)n1cc(C(=O)c2cncc(NC(=O)Cc3ccc(C#N)cc3)c2)c2cncnc21` [Example 208, 2-(4-cyanophenyl)-N-[5-({7-[(1R)-2-hydroxy-1-methylethyl]-7H-pyrrolo[2,3-d]pyrimidin-5-yl}carbonyl)pyridin-3-yl]acetamide] was tested. Which pIC50 did it give?
Its pIC50 is 6.89.

With `C[C@H](CO)n1cc(C(=O)c2cncc(NC(=O)Cc3cccc(S(C)(=O)=O)c3)c2)c2cncnc21` [Example 209, N-[5-({7-[(1R)-2-hydroxy-1-methylethyl]-7H-pyrrolo[2,3-d]pyrimidin-5-yl}carbonyl)pyridin-3-yl]-2-[3-(methylsulfonyl)phenyl]acetamide] as the compound, how does the pIC50 read?
Its pIC50 is 6.57.

How did the pIC50 turn out when `C[C@H](CO)n1cc(C(=O)c2cncc(NC(=O)Cc3ccc4cccnc4c3)c2)c2cncnc21` [Example 210, N-[5-({7-[(1R)-2-hydroxy-1-methylethyl]-7H-pyrrolo[2,3-d]pyrimidin-5-yl}carbonyl)pyridin-3-yl]-2-quinolin-7-ylacetamide] was run?
The pIC50 was 6.73.

`O=C(Cc1ccc(Cl)c(Cl)c1)Nc1cncc(C(=O)c2cn(C3COC3)c3ncncc23)c1` [Example 217, 2-(3,4-dichlorophenyl)-N-{5-[(7-oxetan-3-yl-7H-pyrrolo[2,3-d]pyrimidin-5-yl)carbonyl]pyridin-3-yl}acetamide] was tested. Which pIC50 did it give?
The pIC50 was 7.08.

How did the pIC50 turn out when `N#Cc1ccc(CC(=O)Nc2cncc(C(=O)c3cn(C4COC4)c4ncncc34)c2)cc1` [Example 218, 2-(4-cyanophenyl)-N-{5-[(7-oxetan-3-yl-7H-pyrrolo[2,3-d]pyrimidin-5-yl)carbonyl]pyridin-3-yl}acetamide] was run?
Its pIC50 is 5.92.

`O=C(Cc1ccc(Cl)cc1)Nc1cncc(C(=O)c2cn(C3COC3)c3ncncc23)c1` [Example 219, 2-(4-chlorophenyl)-N-{5-[(7-oxetan-3-yl-7H-pyrrolo[2,3-d]pyrimidin-5-yl)carbonyl]pyridin-3-yl}acetamide] was tested. Which pIC50 did it give?
Its pIC50 is 6.54.

`O=C(Cc1cccc(Cl)c1)Nc1cncc(C(=O)c2cn(C3COC3)c3ncncc23)c1` [Example 220, 2-(3-chlorophenyl)-N-{5-[(7-oxetan-3-yl-7H-pyrrolo[2,3-d]pyrimidin-5-yl)carbonyl]pyridin-3-yl}acetamide] was tested. Which pIC50 did it give?
The pIC50 was 6.34.

`N#Cc1cccc(CC(=O)Nc2cncc(C(=O)c3cn(C4COC4)c4ncncc34)c2)c1` [Example 221, 2-(3-cyanophenyl)-N-{5-[(7-oxetan-3-yl-7H-pyrrolo[2,3-d]pyrimidin-5-yl)carbonyl]pyridin-3-yl}acetamide] was tested. Which pIC50 did it give?
The pIC50 was 5.51.

How did the pIC50 turn out when `O=C(Cc1ccc2cccnc2c1)Nc1cncc(C(=O)c2cn(C3COC3)c3ncncc23)c1` [Example 222, N-{5-[(7-oxetan-3-yl-7H-pyrrolo[2,3-d]pyrimidin-5-yl)carbonyl]pyridin-3-yl}-2-quinolin-7-ylacetamide] was run?
The pIC50 was 6.16.

How did the pIC50 turn out when `O=C(Cc1cn2cc(Cl)ccc2n1)Nc1cncc(C(=O)c2cn(C3COC3)c3ncncc23)c1` [Example 223, 2-(6-chloroimidazo[1,2-a]pyridin-2-yl)-N-{5-[(7-oxetan-3-yl-7H-pyrrolo[2,3-d]pyrimidin-5-yl)carbonyl]pyridin-3-yl}acetamide] was run?
The pIC50 was 5.78.

With `O=C(CN1Cc2ccccc2C1=O)Nc1cncc(C(=O)c2cn(C3COC3)c3ncncc23)c1` [Example 224, N-{5-[(7-oxetan-3-yl-7H-pyrrolo[2,3-d]pyrimidin-5-yl)carbonyl]pyridin-3-yl}-2-(1-oxo-1,3-dihydro-2H-isoindol-2-yl)acetamide] as the compound, how does the pIC50 read?
The pIC50 was 5.51.

How did the pIC50 turn out when `CC(C)(CO)n1cc(C(=O)c2cncc(NC(=O)Cc3ccc(C#N)cc3)c2)c2cncnc21` [Example 225, 2-(4-cyanophenyl)-N-(5-{[7-(2-hydroxy-1,1-dimethylethyl)-7H-pyrrolo[2,3-d]pyrimidin-5-yl]carbonyl}pyridin-3-yl)acetamide] was run?
Its pIC50 is 7.56.

How did the pIC50 turn out when `CC(C)(CO)n1cc(C(=O)c2cncc(NC(=O)Cc3cccc(C(F)(F)F)c3)c2)c2cncnc21` [Example 226, N-(5-{[7-(2-hydroxy-1,1-dimethylethyl)-7H-pyrrolo[2,3-d]pyrimidin-5-yl]carbonyl}pyridin-3-yl)-2-[3-(trifluoromethyl)phenyl]acetamide] was run?
The pIC50 was 8.44.
